From patent publication US20250090462A1, “LIPID COMPOUND AND PREPARATION METHOD THEREFOR, AND USE THEREOF” (South China University of Technology, priority 2022, published 2025)

Experiments:
[1] = Particle size, PDI and Zeta potential of lipid compound nanoparticles (DLS); format: physicochemical; conditions: LNP with pDNA-GFP-Luc, lipid compound:Cholesterol:DOPE:DSPE-PEG=40:48:10:2, N/P 24:1, pH=5.3
Procedure: Lipid compounds 3-2-C8, 3-3-C8, 3-4-C8, 3-5-C8, 10-2-C8, 10-3-C8, 10-4-C8 and 10-5-C8 were used as nanocarrier materials to encapsulate pDNA-GFP-Luc to test the particle size (Size), polymer dispersion index (PDI) and Zeta potential of the lipid nanoparticles.
Ionizable lipids 3-2-C8, 3-3-C8, 3-4-C8, 3-5-C8, 10-2-C8, 10-3-C8, 10-4-C8, 10-5-C8 and dioleoyl phosphatidyl ethanolamine (DOPE), cholesterol, distearoylphosphatidylacetamide-polyethylene glycol (DSPE-PEG) were dissolved in anhydrous ethanol at a certain concentration, the components were uniformly mixed according to a certain molar ratio of lipid compound:Cholesterol:DOPE:DSPE-PEG=40:48:10:2, at the same time, a proper amount of pDNA-GFP-Luc was dissolved in sodium acetate buffer (the volume of sodium acetate buffer was twice the total volume of lipid mixture, pH=5.3), and the pDNA-GFP-Luc dissolved in the buffer was taken into the lipid mixture solution, and quickly mixed to assemble into lipid nanoparticles, the mixed solution was incubated at room temperature for 15 min, and the particle size and potential were tested by dynamic light scattering instrument (DLS). The nitrogen-phosphorus ratio (N/P ratio) of ionizable lipid to pDNA (24:1) was the optimal ratio, that is, the molar ratio between the protonated amino group on the ionized lipid and the phosphate group on the DNA. 2) Analysis of experimental results:
FIG. 11 is the particle size test diagram of nanoparticles prepared by lipid compounds. Table 2 is the Zeta potential test results of nanoparticles prepared by lipid compounds.
The charge is 13.0±1.56-28.7±4.36 mV, which is consistent with the characteristics of lipid nanoparticles, the smaller particle sizes can exert the high permeability and long retention effect (EPR), leading to better accumulation in the tumor sites.

[2] = In vivo RNA imaging (IVIS) of repRNA-Luc delivery after intramuscular injection; parameters: species or system C57BL/6 mice; conditions: for repRNA-Luc expression by IVIS: 3rd day after intramuscular injection, 150 ng repRNA-Luc, DSPC LNP; for course of expression values with time (IVIS total flux): after intramuscular injection of repRNA-Luc LNP
From the text: Ionizable lipid compounds 3-4-C8, 3-5-C8, 10-4-C8, 10-5-C8, and 11-4-C8 were used to deliver self-amplifying RNA (Rep RNA-Luc) encoding firefly luciferase (Luc) in C57BL/6 mice. After intramuscular injection in mice, the in vivo imaging system (IVIS) was used to detect on the 3rd, 5th, and 7th day after injection.
1) The specific steps are the same with the lipid compound delivering RNA test in performance test 3, the difference in this performance test, the experimental group: ionizable lipid compounds 3-4-C8, 3-5-C8, 10-4-C8, 10-5-C8 or 11-4-C8 and distearoyl phosphatidylcholine (DSPC), cholesterol (Cholesterol), distearoyl phosphatidylacetamide-polyethylene glycol (DSPE-PEG) or blank group are dissolved in anhydrous and non-enzymatic ethanol according to a certain concentration, the use of the ratio is ionizable lipid compounds 3-4-C8, 8-4-C8, 10-4-C8 or 11-4-C8:Cholesterol:DSPC:DSPE-PEG=40:48:10:2. A proper amount of repRNA-Luc was dissolved in sodium acetate buffer (the volume of sodium acetate buffer was twice the total volume of the lipid mixture, pH=5.3), the repRNA-Luc dissolved in the buffer was added into the lipid mixture solution and quickly mixed to assemble into lipid nanoparticles, the mixed solution was incubated at room temperature for 15 min, and then dialyzed in ultrapure water for 0.5 h using a dialysis bag (14000 MW), finally, 10% glucose solution was added to the lipid nanoparticle solution to adjust the osmotic pressure for intramuscular injection (LNP containing 150 ng of repRNA-Luc in each dose). Among them, the N/P ratio of ionizable lipid to mRNA (N/P ratio) is 24:1, which is the optimal ratio, that is, the molar ratio between the protonated amino group on the ionizable lipid and the phosphate group on the DNA.
FIG. 18 is the detection map of the in vivo imaging system for lipid nanoparticles injected into mice. FIG. 19 is an injection time and total flux of the lipid compound.

| Zeta potential [1] [mV] | SMILES | repRNA-Luc expression by IVIS [2] | course of expression values with time (IVIS total flux) [2] |
| --- | --- | --- | --- |
| 20.2 ± 3.07 | CCCCCCCCC(CCCCCCCC)OC(=O)NCCCCOC(=O)CCN(CCC(=O)OCCCCNC(=O)OC(CCCCCCCC)CCCCCCCC)CCN1CCCC1 [3-4-C8] | successfully expressed | increased with time |
| 23.5 ± 4.87 | CCCCCCCCC(CCCCCCCC)OC(=O)NCCCCOC(=O)CCN(CCC(=O)OCCCCNC(=O)OC(CCCCCCCC)CCCCCCCC)CCN(C)C [10-4-C8] | successfully expressed | increased with time |
| 20.7 ± 2.77 | CCCCCCCCC(CCCCCCCC)OC(=O)NCCOC(=O)CCN(CCC(=O)OCCNC(=O)OC(CCCCCCCC)CCCCCCCC)CCN(C)C [10-2-C8] | – | – |
| 13.0 ± 1.56 | CCCCCCCCC(CCCCCCCC)OC(=O)NCCOC(=O)CCN(CCC(=O)OCCNC(=O)OC(CCCCCCCC)CCCCCCCC)CCN1CCCC1 [3-2-C8] | – | – |
